pEC50: −log10 of the molar value. Bounds are passed on as bounds.

The record followed here is US9480259B2, “Pyrazolopyrans having herbicidal and pharmaceutical properties” (BASF SE, priority 2012, dated 2016).

This test deals with Arabidopsis thaliana SHMT. Briefly: SHMT activity assay (ED50 SHMT), coupled with N5,N10-CH2-THF dehydrogenase, NADH at 340 nm. In kind it is biochemical. The gist of the method: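 His-tagged SHMT purified on Ni-NTA. NADH formation followed at 340 nm for 30 min; ED50 from inhibition of initial velocity.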
Where [1] appears, read: Table 2, Arabidopsis thaliana SHMT enzyme assay, values given as upper bounds.
Setting [2] is: inhibition of initial velocity of Arabidopsis thaliana SHMT.
The mark [3] stands for this setting: Arabidopsis thaliana SHMT enzyme assay, values given as upper bounds.
The mark [4] stands for this setting: Table 2, values given as upper bounds.

The pEC50 is −log10 of the EC50, conventionally taken in molar units. High values mean a low EC50, low ones a high EC50. In turn, `Cc1n[nH]c2c1C(c1cccc(OC(F)F)c1)(C1CCC1)C(C#N)=C(N)O2` (stereo not drawn) [Compound 2.264] gave a pEC50 under setting [1] above 8.00.
In turn, `Cc1n[nH]c2c1C(c1nc3ccc(Cl)cc3o1)(C1CCC1)C(C#N)=C(N)O2` (stereo not drawn) [Compound 4.37] gave a negative logarithm of the EC50 (pEC50) under setting [2] above 8.00.
On to `N#CC1=C(N)Oc2[nH]ncc2C1(c1cc(Cl)cc(Br)c1)C1CCC1` (stereo not drawn) [Compound 2.248], for which the pEC50 under setting [1] is above 8.00.
For the compound `N#CC1=C(N)Oc2[nH]ncc2C1(c1cc(Cl)cc(-c2cscn2)c1)C1CCC1` (stereo not drawn) [Compound 2.339], the pEC50 under setting [1] was above 7.00.
The compound `Cc1n[nH]c2c1C(c1cc(-c3nnn[nH]3)cc(N(C)C(=O)CCCC#N)c1)(C1CCC1)C(C#N)=C(N)O2` (stereo not drawn) [Compound 2.690] gave a pEC50 under setting [3] above 6.00.
As to `Cc1n[nH]c2c1C(c1cccc(C(F)(F)F)c1)(C(C)C)C(C#N)=C(N)O2` (stereo not drawn) [Compound 2.137.], the negative-log EC50 (pEC50) under setting [4] is above 7.00.
In the case of `Cc1n[nH]c2c1C(c1cc(C#N)cc(N(C)C(=O)CCCc3nnn[nH]3)c1)(C(C)C)C(C#N)=C(N)O2` (stereo not drawn) [Compound 2.722], under setting [3], the pEC50 was above 7.00.
`Cc1n[nH]c2c1C(c1cc(C#N)cc(-c3cccc(C(=O)O)c3)c1)(C1CCC1)C(C#N)=C(N)O2` (stereo not drawn) [Compound 2.461]: the negative-log EC50 (pEC50) under setting [4] is above 8.00.
Under setting [1], `N#CC1=C(N)Oc2[nH]ncc2C1(c1cc(Cl)cc(I)c1)C1CCC1` (stereo not drawn) [Compound 2.298] gave a pEC50 above 8.00.
As for `CCC1(c2cc(Cl)cc(Cl)c2)C(C#N)=C(N)Oc2[nH]nc(C)c21` (stereo not drawn) [Compound 2.12.], the pEC50 under setting [4] is above 7.00.
As to `COC(=O)c1cc(-c2cc(Cl)cc(C3(C4CCC4)C(C#N)=C(N)Oc4[nH]nc(C)c43)c2)ccc1Cl` (racemic) [Compound 2.514], the pEC50 under setting [4] is above 8.00.
With `N#CC1=C(N)Oc2[nH]ncc2C1(c1ccc(C(F)(F)F)c(C(F)(F)F)c1)C1CCC1` (stereo not drawn) [Compound 2.302], the pEC50 under setting [1] is above 8.00.
For `CCC1(c2cc(F)c(F)cc2F)C(C#N)=C(N)Oc2[nH]nc(C)c21` (stereo not drawn) [Compound 3.3], the pEC50 under setting [2] was above 5.00.
On to `Cc1n[nH]c2c1C(c1cc(Cl)cc(Cl)c1)(C(C)F)C(C#N)=C(N)O2` (stereo not drawn) [Compound 2.651], for which, under setting [4], the pEC50 was above 8.00.
In the case of `CCOc1n[nH]c2c1C(c1cc(Br)cc(C#N)c1)(C1(F)CC1)C(C#N)=C(N)O2` (stereo not drawn) [Compound 2.395], the negative-log EC50 (pEC50) under setting [1] is above 6.00.
On the same count and under the same terms, the same measure for `N#CC1=C(N)Oc2[nH]ncc2C1(c1cc(C#N)cc(C(F)(F)F)c1)C1CCC1` (stereo not drawn) [Compound 2.321]: above 8.00.
`CCCC1(c2cc(C#N)cc(C#N)c2)C(C#N)=C(N)Oc2[nH]nc(OC)c21` (stereo not drawn) [Compound 2.604] showed a pEC50 under setting [4] above 6.00.
On the same count and under the same terms, in the case of `Cc1n[nH]c2c1C(c1cc(Cl)cc(Oc3ccccc3)c1)(C1CC1)C(C#N)=C(N)O2` (stereo not drawn) [Compound 2.153.] it was above 7.00.
Same read-out and setting: in the case of `Cc1n[nH]c2c1C(c1cc(C#N)cc(-c3cc(C(=O)O)cc(C(F)(F)F)c3)c1)(C1CCC1)C(C#N)=C(N)O2` (stereo not drawn) [Compound 2.644] it was above 8.00.
On to `COC(=O)c1csc(-c2cc(C#N)cc(C3(C(C)C)C(C#N)=C(N)Oc4[nH]nc(C)c43)c2)c1` (stereo not drawn) [Compound 2.679], for which the pEC50 under setting [3] is above 8.00.
Under setting [4], `CCCC1(c2cc(Br)cc(C#N)c2)C(C#N)=C(N)Oc2[nH]nc(C)c21` (stereo not drawn) [Compound 2.534] showed a negative logarithm of the EC50 (pEC50) above 8.00.
The compound `CCc1n[nH]c2c1C(CC)(c1cc(Br)cc(C#N)c1)C(C#N)=C(N)O2` (stereo not drawn) [Compound 2.576] gave a pEC50 under setting [4] above 7.00.
Take `Cc1n[nH]c2c1C(c1cc(C#N)cc(-c3cc(Cl)cc(C(=O)O)c3)c1)(C1CCC1)C(C#N)=C(N)O2` (stereo not drawn) [Compound 2.559]: the pEC50 under setting [4] is above 7.00.
The compound `Cc1n[nH]c2c1C(C(C)C)(C(F)(F)c1cccc(Cl)c1)C(C#N)=C(N)O2` (stereo not drawn) [Compound 4.67] had a pEC50 under setting [2] above 6.00.
Under setting [4], `COC(=O)c1cc(-c2cc(C#N)cc(C3(C4CCC4)C(C#N)=C(N)Oc4[nH]nc(C)c43)c2)ccc1Cl` (stereo not drawn) [Compound 2.509] had a negative-log EC50 (pEC50) above 8.00.
In turn, `Cc1ccc(Oc2cc(Cl)cc(C3(C4CCC4)C(C#N)=C(N)Oc4[nH]nc(C)c43)c2)cc1` (stereo not drawn) [Compound 2.240] gave a negative logarithm of the EC50 (pEC50) under setting [1] above 8.00.
Consider `COC(=O)CCS(=O)(=O)N(C)c1cc(C#N)cc(C2(C(C)C)C(C#N)=C(N)Oc3[nH]nc(C)c32)c1` (stereo not drawn) [Compound 2.726], for which the pEC50 under setting [3] was above 7.00.
`N#CC1=C(N)Oc2[nH]ncc2C1(c1cc(Br)cc(Br)c1)C1CCC1` (stereo not drawn) [Compound 2.251] had a negative-log EC50 (pEC50) under setting [1] above 8.00.
In turn, `CCC1(c2cc(-c3cccs3)cs2)C(C#N)=C(N)Oc2[nH]nc(C)c21` (stereo not drawn) [Compound 4.61] had a negative-log EC50 (pEC50) under setting [2] above 7.00.
With `Cc1n[nH]c2c1C(c1cc(-c3nnn[nH]3)cc(-c3nnn[nH]3)c1)(C1CCC1)C(C#N)=C(N)O2` (stereo not drawn) [Compound 2.354], under setting [1], the negative-log EC50 (pEC50) was above 5.00.
As to `Cc1n[nH]c2c1C(c1ccc(Cl)cc1)(C(F)(F)C(F)(F)F)C(C#N)=C(N)O2` (stereo not drawn) [Compound 2.96.], under setting [4], the pEC50 was above 6.00.
Same read-out and setting: in the case of `COCc1n[nH]c2c1C(c1cccc(C(F)(F)F)c1)(C1CCC1)C(C#N)=C(N)O2` (stereo not drawn) [Compound 2.196.] it was above 6.00; in that of `COc1ccc(C2(C3CCC3)C(C#N)=C(N)Oc3[nH]nc(C)c32)cc1C(F)(F)F` (stereo not drawn) [Compound 2.176.], above 8.00.
In the case of `CCC1(c2cc(F)cc(F)c2)C(C#N)=C(N)Oc2[nH]nc(C)c21` (stereo not drawn) [Compound 2.17.], the negative-log EC50 (pEC50) under setting [4] is above 6.00.
Take `Cc1n[nH]c2c1C(c1cc(C#N)cc(NS(=O)(=O)C(F)(F)F)c1)(C1CCC1)C(C#N)=C(N)O2` (stereo not drawn) [Compound 2.733]: the negative logarithm of the EC50 (pEC50) under setting [3] was above 7.00.
Consider `Cc1n[nH]c2c1C(c1cc(C#N)cc(C#N)c1)(C1CC(F)C1)C(C#N)=C(N)O2` (stereo not drawn) [Compound 2.714], for which, under setting [3], the pEC50 was above 7.00.
Compound `Cc1n[nH]c2c1C(c1cc(Cl)cc(Cl)c1)(C1CC(F)(F)C1)C(C#N)=C(N)O2` (stereo not drawn) [Compound 2.652] gave a pEC50 under setting [4] above 8.00.
Same read-out and setting: in the case of `N#CC1=C(N)Oc2[nH]nc(C(F)F)c2C1(c1cc(Cl)cc(Cl)c1)C1CCC1` (stereo not drawn) [Compound 2.168.] it was above 7.00.
Take `Cc1n[nH]c2c1C(c1cc(C#N)cc(N(C)C(=O)c3ccc(C(=O)O)cc3)c1)(C(C)C)C(C#N)=C(N)O2` (stereo not drawn) [Compound 2.669]: the pEC50 under setting [3] was above 7.00.
Consider `CCCC1(c2cc(Cl)cc(C#N)c2)C(C#N)=C(N)Oc2[nH]nc(OC)c21` (stereo not drawn) [Compound 2.602], for which the pEC50 under setting [4] is above 5.00.
As to `Cc1n[nH]c2c1C(c1cc(C#N)cc(N(C)S(=O)(=O)CC(=O)O)c1)(C(C)C)C(C#N)=C(N)O2` (stereo not drawn) [Compound 2.732], under setting [3], the pEC50 is above 7.00.
`Cc1n[nH]c2c1C(c1cc(Cl)cc(OCc3nnn[nH]3)c1)(C1CCC1)C(C#N)=C(N)O2` (stereo not drawn) [Compound 2.446] showed a pEC50 under setting [4] above 8.00.
Same read-out and setting: in the case of `CCC1(c2cc(C(F)(F)F)cc(C(F)(F)F)c2)C(C#N)=C(N)Oc2[nH]nc(CCC(F)F)c21` (stereo not drawn) [Compound 2.107.] it was above 6.00; in that of `Cc1n[nH]c2c1C(c1cccc(-c3cccc(C(=O)O)c3)c1)(C1CCC1)C(C#N)=C(N)O2` (stereo not drawn) [Compound 2.494], above 7.00.
For the compound `Cc1n[nH]c2c1C(c1cc(-c3cccc(F)c3)cs1)(C1CCC1)C(C#N)=C(N)O2` (stereo not drawn) [Compound 4.47], the negative logarithm of the EC50 (pEC50) under setting [2] was above 7.00.
`CCC1(c2ccc(O)c([N+](=O)[O-])c2)C(C#N)=C(N)Oc2[nH]nc(C)c21` (stereo not drawn) [Compound 2.37.] showed a negative-log EC50 (pEC50) under setting [4] above 6.00.
Still for that read-out and setting: the same measure for `COc1cc(C(=O)O)cc(-c2cc(C#N)cc(C3(C4CCC4)C(C#N)=C(N)Oc4[nH]nc(C)c43)c2)c1` (stereo not drawn) [Compound 2.563]: above 8.00; for `COC(=O)CCc1cccc(-c2cc(C#N)cc(C3(C4CCC4)C(C#N)=C(N)Oc4[nH]nc(C)c43)c2)c1` (stereo not drawn) [Compound 2.523]: above 8.00.
